Test system: SH-S5Y5 neuroblastoma cells
Assay: Cell viability (MTT) in response to Aβ, in vitro model of Alzheimer's disease
Type: cell-based
Settings: 20 μM Aβ, 24 h
Description: The SH-S5Y5 neuroblastoma cell line was used for pre-clinical analysis. The SH-S5Y5 cell line is commonly used as a model for neurodegenerative disorders as the cells can be converted to various types of functional neurons by the addition of specific compounds (see, e.g., Xicoy et al., 2017, Molecular Neurodegeneration, 12: 10). In addition, the SH-S5Y5 cell line has been used widely in experimental neurological studies, including analysis of neuronal differentiation, metabolism, and function related to neurodegenerative processes, neurotoxicity and neuroprotection (see, e.g., Datki et al., 2003, Brain Research Bulletin, 62(3): 22-229; and Xie et al., 2010, Chinese Medical Journal, 123(8): 1086-1092).
100 μL MTT reagent was added to each well (final concentration 0.5 mg/mL). Cells were then incubated at 37 °C, 5% CO2 for 4 hours. Solubilization buffer (100 μL) was then added to each well and further incubated at 37 °C, 5% CO2 for 24 hours. Absorbance was then measured by spectrophotometer at 550-600 nm and background corrected at 650 nm.
Amyloid-β (Aβ; 1 mg) was dissolved in 2 mL of 1,1,1,3,3,3-hexafluoro-2-propanol (HFIP). An additional 200 μL of HFIP was then added due to volatility. The Aβ was sealed with parafilm and vortexed for 30 seconds before aliquoting at 100 μL per 1.5 mL tube. HFIP was then evaporated in fume hood for 8 hours. Tubes were then sealed with lid and parafilm and stored at −80 °C. Prior to use, Aβ was reconstituted in DMSO to a final volume of 10% v/v for 10-15 min at RT and vortexed every 3-5 min. F-12 medium was then added to a final volume of 90% v/v. Aβ was then stored at 4 °C for 24 hours and vortexed before use.
Cells were seeded in 96-well microplates and incubated 37 °C, 5% CO2 for 24 hours.

COc1cc2c(cc1OC)C(=O)C(CC1CCN(Cc3ccccc3)CC1)C2 (centres unmarked) [Donepezil]
Cell viability as measured by MTT (Donepezil 2.5 μM): −0.036
Cell viability as measured by MTT (Donepezil 5 μM): −0.021
Cell viability as measured by MTT (Donepezil 10 μM): 0.021
Cell viability as measured by MTT (Donepezil 20 μM): −0.011
Cell viability as measured by MTT (Donepezil 30 μM): −0.013

From patent US20260345641A1, “COMPOSITIONS AND USES THEREOF” (Algorae Pharmaceuticals Ltd, priority 2023, published 2026)
